Experimental data reported in patent publication US20240301408A1, “MICRORNA 195 COMPOSITIONS AND METHODS FOR TREATING COGNITIVE IMPAIRMENT” (UNITED STATES GOVERNMENT AS REPRESENTED BY THE DEPARTMENT …, priority 2021, published 2024).

Key:
holo-APP or BACE-1 = experiment: brain holo-APP and BACE-1 levels in EFAD mice after miR-195-5p over-expression; format: in vivo; settings: EFAD mouse brains
Procedure: Stereotaxic injection and behavior studies. Eight to nine weeks old male and female ApoE3^+/+ and ApoE4^+/+ KI mice without 5×FAD background (N=19-23/group), or with 5×FAD background (N=15-17/group) were placed in the stereotaxic apparatus with AAV2 or scramble virus administered into the dorsal CA1 regions of bilateral hippocampal brain regions using pressure injection (Labonte B et al., Nat Med 2017, and Passini M A et al., The Journal of neuroscience 2006). Injection volumes (0.5-2.0 μl) were delivered over 10 min to avoid tissue damage. […]
Brain and neuronal sample preparation and biochemical analysis. […] Levels of Aβ42, Aβ40, pTau, Tau and ApoE were determined using high-sensitive ELISA kits. […]
Statistical analysis. […] Levels of miR-195-5p and miR-374 were normalized to U6 and RNU6B (internal controls) while synj1 mRNA normalized to GAPDH and 18s, and then expressed as Log2fold of changes when compared to controls. Levels of synj1, dyn1, pTau, Tau, and holoAPP were normalized to β-actin levels and expressed as a percentage of the control. Absolute Aβ42, Aβ40, pTau, Tau, and ApoE concentrations were quantitatively determined by ELISA and expressed as a percentage of the control. […] Pearson correlation coefficients were calculated to determine the linear relationship between the two variables. […]

[1] = system: microglia-specific gene profiles, E4FAD mouse brain; experiment: scRNA-seq of EFAD mouse brains with miR-195-5p over-expression; format: in vivo; settings: Mic.C0 and Mic.C2 microglial sub-clusters; N=4 pooled mice/condition
Procedure: Changes in microglia-specific gene profiles with miR-195-5p over-expression in E4FAD mouse brain. scRNA-seq analysis of EFAD mouse brains with miR-195-5p over-expression was performed (FIG. 15; N=4 pooled mice/condition). Single cell suspensions were prepared and processed with the 10× Genomics Chromium platform. After quality control (QC), the gene-level UMIs data were normalized by a regularized negative binomial regression analysis (Hafemeister, C. & Satija, R. Genome Biology 20, 296, (2019)). Genes were selected that were detected in more than one cell and cells with sequencing reads in 200˜4,000 genes and mitochondrial read rate of less than 50%. […] The significant principal components as determined by a JackStraw permutation procedure were selected for cell clustering using Seurat's graph-based clustering approach (Butler, A., et al. Nature Biotechnology 36, 411, (2018)). […] After removing predicted doublets from the clusters, the cluster marker genes were observed and the expression patterns of known gene markers were analyzed to annotate clusters into major cell-types: excitatory neurons (Ex; marked by NRGN), inhibitory neurons (In; GAD1), astrocytes (Ast; AQP4, GFAP), oligodendrocytes (Oli; PLP1, MBP), microglia (Mic; CSF1R, CD74), oligodendrocyte progenitor cells (Opc; VCAN), and endothelial cells (End; FLT1). […]

## UAGCAGCACAGAAAUAUUGGC (chemistry not given here) [miR-195-5p, over-expressed via AAV2-containing miR-195-5p from ABM Inc]
holo-APP or BACE-1
  holo-APP or BACE-1 levels: no significant changes
[1]
  top GO pathways enriched with microglial sub-cluster DEGs: down-regulates innate immune system and effector responses
